Assays:
rat PEPT1 = molecular target: T1, rat PEPT1 (Rattus norvegicus, UniProt P51574); experiment: Electrogenic transport (induced current) in Xenopus oocytes transfected with rat PEPT1; format: cell-based
T1 construct: Rat and human PEPT1 and PEPT2 transporter cDNAs were subcloned into a modified pGEM plasmid; expressed in transfected cells; host or cells: Xenopus laevis oocytes injected with in vitro transcribed RNA
T1 sequence (P51574 1-710): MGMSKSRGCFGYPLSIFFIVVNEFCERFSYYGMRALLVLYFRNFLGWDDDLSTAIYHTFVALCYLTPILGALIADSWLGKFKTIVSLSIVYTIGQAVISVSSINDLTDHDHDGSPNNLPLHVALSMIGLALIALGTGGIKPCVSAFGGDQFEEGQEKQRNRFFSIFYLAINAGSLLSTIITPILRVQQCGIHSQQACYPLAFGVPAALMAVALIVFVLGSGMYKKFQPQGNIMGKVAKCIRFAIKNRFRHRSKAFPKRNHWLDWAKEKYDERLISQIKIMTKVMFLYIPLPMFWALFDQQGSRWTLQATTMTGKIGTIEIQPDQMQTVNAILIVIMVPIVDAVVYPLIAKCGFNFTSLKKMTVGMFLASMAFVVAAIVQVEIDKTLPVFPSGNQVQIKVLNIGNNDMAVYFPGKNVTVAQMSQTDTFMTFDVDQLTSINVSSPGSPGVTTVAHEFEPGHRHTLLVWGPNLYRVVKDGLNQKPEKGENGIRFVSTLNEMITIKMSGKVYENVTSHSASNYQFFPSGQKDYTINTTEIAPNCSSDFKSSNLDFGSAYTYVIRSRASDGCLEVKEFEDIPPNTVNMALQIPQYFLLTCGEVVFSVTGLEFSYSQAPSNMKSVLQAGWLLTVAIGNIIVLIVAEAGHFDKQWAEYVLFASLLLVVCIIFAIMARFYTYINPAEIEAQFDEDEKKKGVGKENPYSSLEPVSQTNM
Experimental: Rat and human PEPT1 and PEPT2 expressing CHO cell lines were prepared as described in PCT Application WO01/20331. Gabapentin-containing dipeptides were evaluated for interaction with the peptide transporters using a radiolabeled substrate uptake assay in a competitive inhibition format, as described in PCT Application WO01/20331. Transport-induced currents were also measured in Xenopus oocytes transfected with rat and human PEPT1 and PEPT2.
RNA preparation: Rat and human PEPT1 and PEPT2 transporter cDNAs were subcloned into a modified pGEM plasmid that contains 5′ and 3′ untranslated sequences from the Xenopus β-actin gene. These sequences increase RNA stability and protein expression. Plasmid cDNA was linearized and used as template for in vitro transcription (Epicentre Technologies transcription kit, 4:1 methylated:non-methylated guanosine triphosphate(GTP)).
Xenopus oocyte isolation. Xenopus laevis frogs were anesthetized by immersion in Tricaine ([…] in deionized water) for 15 min. […]
Electrophysiology measurements. Transport currents were measured 2-14 days after injection, using a standard two-electrode electrophysiology set-up (Geneclamp 500 amplifier, Digidata 1320/PCLAMP software and ADInstruments hardware and software were used for signal acquisition). […]

Caco-2 cells = experiment: Caco-2 transport with and without PEPT1/PEPT2 inhibitor Lys(ε-Dansyl)-Leu; format: cell-based, human; details: apical to basolateral, 600 μM Lys(ε-Dansyl)-Leu, FIG. 2
Excerpt: Caco-2 cells are derived from the human colon and naturally express a number of colon-expressed transporters. The cells can be used to screen agents or conjugates for capacity to be transported by a colon expressed transporter. By screening agents or conjugates in the presence and absence of the specific PEPT1 and PEPT2 inhibitor Lys(ε-Dansyl)-Leu, one can determine whether PEPT1 and/or PEPT2 is a transporter mediating transport of the agent or conjugate. The role of PEPT1 and/or PEPT2 is shown by a decrease in transport in the presence of Lys(ε-Dansyl)-Leu.
1. Caco-2 cells are plated in either a 12 or 24 well Transwell plate and allowed to differentiate for 19-30 days prior to screening. Day 21 cells are optimal.
2. Dilutions of test compounds with or without Lys(ε-Dansyl)-Leu are prepared in assay buffer. pH 6.0
a. Concentrations of compounds are generally 1 mM with or without 600 μM Lys(Dansyl)-leucine.
b. 20 μM Propidium Iodide added as marker.
3. Spent media is aspirated from apical and basolateral chambers. To the apical chambers, 500 μL of test compound with or without Lys(ε-Dansyl)-Leu is added (125 μL for 24 well Transwell plates).
4. In the basolateral chambers, HBSS buffer pH 7.4 is added (1.5 mL for 12 well format, 875 μL for 24 well format).
5. At each timepoint, 50 μL is sampled from basolateral chambers and transferred to a LC/MS plate (Nunc, PP round bottom).
6. […]

Question: Which results are given for `CC(C)(N)C(=O)NCC1(CC(=O)O)CCCCC1` [Compound V, a-aminoisobutyryl gabapentin]?
Answer: Vmax relative to reference substrate Gly-Sar (rat PEPT1; 1 mM, oocytes transfected with rat PEPT1): 50%; Vmax relative to Gly-Sar in the presence of PEPT inhibitor Lys(ε-Dansyl)-Leu (rat PEPT1; rat PEPT transfected oocytes, with Lys(ε-Dansyl)-Leu): < 5%; Transport across Caco-2 cells in presence and absence of Lys(ε-Dansyl)-Leu (Caco-2 cells): inhibited by Lys(ε-Dansyl)-Leu

Source: patent US20030158254A1, “Engineering absorption of therapeutic compounds via colonic transporters” (XenoPort, Inc., priority 2002, published 2003)
